Results reported in patent US11827616B2, “Heterocyclic compounds as pesticides” (Discovery Purchaser Corporation, priority 2018, dated 2023).
Read-outs that look alike come from different tables or passages of the source.

How the values were obtained:
Format in all cases: in vivo
[1] = tested on: Anopheles funestus strain FUMOZ-R; experiment: Anopheles test (ANPHFU surface treatment); conditions: read-out: efficacy (mortality in %)
Method: Anopheles Test (ANPHFU Surface Treatment)
(§1) Solvent: acetone+2000 ppm rapeseed oil methyl ester (RME)
(§2) To produce an appropriate active compound formulation, the active compound is dissolved in the solvent (2 mg/ml). The active compound formulation is pipetted onto a glazed tile and, after it has dried off, adult mosquitoes of the species Anopheles funestus strain FUMOZ-R (Hunt et al., Med Vet Entomol. 2005 Sep.; 19 (3):271-5) are placed onto the treated tile. The exposure time is 30 minutes.
(§3) 24 hours after contact with the treated surface, mortality in % is determined. 100% means that all mosquitoes have been killed; 0% means that none of the mosquitoes have been killed.

[2] = tested on: Anopheles gambiae strain RSPH (homozygot kdr); experiment: Anopheles test (ANPHGB surface treatment); conditions: read-out: efficacy (mortality in %)
Method: Anopheles Test (ANPHGB Surface Treatment)
as §1
as §2, with “gambiae” for “funestus”, “RSPH (homozygot kdr)” for “FUMOZ-R (Hunt et al., Med Vet Entomol. 2005 Sep.; 19 (3):271-5)”
as §3

Tetranychus urticae = Tetranychus urticae spray test, OP-resistant; conditions: application rate 500 g/ha; after 6 days
Method: Tetranychus urticae—Spray Test, OP-Resistant
Solvent: 78.0 Parts by Weight of Acetone • • 1.5 parts by weight of dimethylformamide
(§4) Emulsifier: alkylaryl polyglycol ether
(§5) To produce a suitable active compound formulation, 1 part by weight of active compound is dissolved with the specified parts by weight of solvent and made up to the desired concentration with water containing an emulsifier concentration of 1000 ppm. To produce further test concentrations, the formulation is diluted with emulsifier-containing water.
Discs of bean leaves (Phaseolus vulgaris) infested with all stages of the greenhouse red spider mite (Tetranychus urticae) are sprayed with an active compound formulation of the desired concentration.
After 6 days, the efficacy in % is determined. 100% means that all the spider mites have been killed; 0% means that no spider mites have been killed.

Ctenocephalides felis [3] = experiment: Ctenocephalides felis in vitro contact test with adult cat fleas; conditions: application rate 5 μg/cm^2 (=500 g/ha); after 48 h
Method: Ctenocephalides felis—In Vitro Contact Tests with Adult Cat Fleas
(§6) For the coating of the test tubes, 9 mg of active compound are first dissolved in 1 ml of acetone p.a. and then diluted to the desired concentration with acetone p.a. 250 μl of the solution are distributed homogeneously on the inner walls and the base of a 25 ml glass tube by turning and rocking on an orbital shaker (rocking rotation at 30 rpm for 2 h). With 900 ppm of active compound solution and internal surface area 44.7 cm^2, given homogeneous distribution, an area-based dose of 5 μg/cm^2 is achieved.
After the solvent has evaporated off, the tubes are populated with 5-10 adult cat fleas (Ctenocephalides felis), sealed with a perforated plastic lid and incubated in a horizontal position at room temperature and ambient humidity. After 48 h, efficacy is determined. To this end, the tubes are stood upright and the fleas are knocked to the base of the tube. Fleas which remain motionless at the base or move in an uncoordinated manner are considered to be dead or moribund.
100% efficacy means that all the fleas were dead or moribund. 0% efficacy means that no fleas were harmed.

Rhipicephalus sanguineus = Rhipicephalus sanguineus in vitro contact test with adult brown dog ticks; conditions: application rate 5 μg/cm^2 (=500 g/ha); after 48 h
Method: Rhipicephalus sanguineus—In Vitro Contact Tests with Adult Brown Dog Ticks
as §6
After the solvent has evaporated off, the tubes are populated with 5-10 adult dog ticks (Rhipicephalus sanguineus), sealed with a perforated plastic lid and incubated in a horizontal position in the dark at room temperature and ambient humidity. After 48 h, efficacy is determined. To this end, the ticks are knocked to the base of the tube and incubated on a hotplate at 45-50° C. for not more than 5 min. Ticks which remain motionless on the base or move in such an uncoordinated manner that they are unable to deliberately avoid the heat by climbing upwards are considered to be dead or moribund.
An efficacy of 100% means that all the ticks were dead or moribund. 0% efficacy means that none of the ticks were harmed.

Phaedon cochleariae = Phaedon cochleariae spray test; conditions: for pest or weed control at 500 g/ha: Phaedon cochleariae, 168 h, read-out: efficacy
Method: Phaedon cochleariae—Spray Test
(§7) Solvent: 78.0 parts by weight of acetone • • 1.5 parts by weight of dimethylformamide
as §4, §5
Discs of Chinese cabbage leaves (Brassica pekinensis) are sprayed with an active compound formulation of the desired concentration and, after drying, populated with larvae of the mustard beetle (Phaedon cochleariae).
After 7 days, the efficacy in % is determined. 100% means that all the beetle larvae have been killed; 0% means that no beetle larvae have been killed.

Boophilus microplus = Boophilus microplus injection test; conditions: for pest or weed control at 0.02 mg: Rhipicephalus microplus, 168 h
Method: Boophilus microplus—Injection Test
(§8) Solvent: dimethyl sulfoxide
To produce a suitable active compound formulation, 10 mg of active compound are mixed with 0.5 ml of solvent and the concentrate is diluted to the desired concentration with solvent.
1 μl of the active compound solution is injected into the abdomen of 5 engorged adult female cattle ticks (Boophilus microplus). The animals are transferred into dishes and kept in a climate-controlled room.
Efficacy is assessed after 7 days by laying of fertile eggs. Eggs which are not visibly fertile are stored in a climate-controlled cabinet until the larvae hatch after about 42 days. An efficacy of 100% means that none of the ticks has laid any fertile eggs; 0% means that all the eggs are fertile.

[4] = tested on: Aedes aegypti strain MONHEIM; experiment: Aedes test (AEDSAE surface treatment); conditions: read-out: efficacy (mortality in %)
Method: Aedes Test (AEDSAE Surface Treatment)
as §1
To produce an appropriate active compound formulation, the active compound is dissolved in the solvent (2 mg/ml). The active compound formulation is pipetted onto a glazed tile and, after it has dried off, adult mosquitoes of the species Aedes aegypti strain MONHEIM are placed onto the treated tile. The exposure time is 30 minutes. 24 hours after contact with the treated surface, mortality in % is determined. 100% means that all mosquitoes have been killed; 0% means that none of the mosquitoes have been killed.

Lucilia cuprina = Lucilia cuprina test; conditions: application rate 100 ppm; L1 larvae; after 2 days
Method: as §8
To produce a suitable active compound formulation, 10 mg of active compound are mixed with 0.5 ml of dimethyl sulfoxide, and the concentrate is diluted with water to the desired concentration.
About 20 L1 larvae of the Australian sheep blowfly (Lucilia cuprina) are transferred into a test vessel containing minced horsemeat and the active compound formulation of the desired concentration.
After 2 days, the kill in % is determined. 100% means that all the larvae have been killed; 0% means that no larvae have been killed.

Ctenocephalides felis [5] = experiment: Ctenocephalides felis oral test; conditions: application rate 100 ppm in citrated cattle blood; after 2 days
Method: Ctenocephalides felis—Oral Test
as §8
To produce a suitable active compound formulation, 10 mg of active compound are mixed with 0.5 ml of dimethyl sulfoxide. Dilution with citrated cattle blood gives the desired concentration.
About 20 unfed adult cat fleas (Ctenocephalides felis) are placed into a chamber which is closed at the top and bottom with gauze. A metal cylinder whose bottom end is closed with parafilm is placed onto the chamber. The cylinder contains the blood/active compound formulation, which can be imbibed by the fleas through the parafilm membrane.
After 2 days, the kill in % is determined. 100% means that all of the fleas have been killed; 0% means that none of the fleas have been killed.

Spodoptera frugiperda = Spodoptera frugiperda spray test; conditions: for pest or weed control at 500 g/ha: Spodoptera frugiperda, 168 h, read-out: efficacy
Method: Spodoptera frugiperda—Spray Test
as §7, §4, §5
Leaf discs of maize (Zea mays) are sprayed with an active compound formulation of the desired concentration and, after drying, populated with caterpillars of the fall armyworm (Spodoptera frugiperda).
After 7 days, the efficacy in % is determined. 100% means that all the caterpillars have been killed; 0% means that no caterpillar has been killed.

[6] = read-out: efficacy (laying of fertile eggs), application rate 20 μg/animal, after 7 days
[7] = application rate 500 g/ha, after 7 days
[8] = application rate 20 μg/animal, after 7 days
[9] = application rate 20 mg/m^2, exposure 30 minutes, 24 hours after contact

CON(C)CCOc1ccc(COc2ccc(Cl)c3ccccc23)cn1 [Example 2, 2-[(5-{[(4-chloro-1-naphthyl)oxy]methyl}pyridin-2-yl)oxy]-N-methoxy-N-methylethanamine]
mortality at 20 mg/m2 [1]: 80 to 100% | mortality at 100 mg/m2 [1]: 80 to 100% | mortality at 20 mg/m2 [2]: 80 to 100% | mortality at 100 mg/m2 [2]: 80 to 100% | efficacy (Tetranychus urticae): 90% | efficacy (fleas dead or moribund) (Ctenocephalides felis [3]): 100% | efficacy (ticks dead or moribund) (Rhipicephalus sanguineus): 100% | pest or weed control at 500 g/ha (Phaedon cochleariae): 100% | pest or weed control at 0.02 mg (Boophilus microplus; [6]): 100% | mortality at 20 mg/m2 [4]: 80 to 100% | mortality at 100 mg/m2 [4]: 80 to 100% | efficacy (kill in %) (Lucilia cuprina): 100% | efficacy (kill in %) (Ctenocephalides felis [5]): 80% | pest or weed control at 500 g/ha (Spodoptera frugiperda): 100%

CON(C)CCOc1ccc(COc2ccc(Cl)c3ccccc23)c(F)n1 [Example 3, 2-[(5-{[(4-chloro-1-naphthyl)oxy]methyl}-6-fluoropyridin-2-yl)oxy]-N-methoxy-N-methylethanamine]
mortality at 20 mg/m2 [1]: 80 to 100% | mortality at 100 mg/m2 [1]: 80 to 100% | mortality at 20 mg/m2 [2]: 80 to 100% | mortality at 100 mg/m2 [2]: 80 to 100% | mortality at 100 mg/m2 [4]: 80 to 100%

N#CCN1CCC(Oc2ccc(COc3ccc(Cl)c4ccccc34)cn2)C1 (centres unmarked) [Example 5, {3-[(5-{[(4-chloro-1-naphthyl)oxy]methyl}pyridin-2-yl)oxy]pyrrolidin-1-yl}acetonitrile]
mortality at 20 mg/m2 [1]: 80 to 100% | mortality at 20 mg/m2 [2]: 80 to 100% | mortality at 100 mg/m2 [2]: 80 to 100% | pest or weed control at 500 g/ha (Phaedon cochleariae): 100% | pest or weed control at 0.02 mg (Boophilus microplus; [6]): 100% | efficacy (kill in %) (Lucilia cuprina): 100% | pest or weed control at 500 g/ha (Spodoptera frugiperda): 83%

CON(C)CCOc1cnc(COc2ccc(Br)c3ccccc23)c(F)c1 [Example 21]
efficacy (Tetranychus urticae): 90% | efficacy (fleas dead or moribund) (Ctenocephalides felis [3]): 100% | efficacy (ticks dead or moribund) (Rhipicephalus sanguineus): 100% | efficacy (Phaedon cochleariae; [7]): 100% | efficacy (laying of fertile eggs) (Boophilus microplus; [8]): 100% | efficacy (kill in %) (Lucilia cuprina): 100% | efficacy (kill in %) (Ctenocephalides felis [5]): 80% | efficacy (Spodoptera frugiperda; [7]): 100%

CN(CC#N)CCOc1cnc(COc2ccc3oc4ccccc4c3c2)c(F)c1 [Example 29, {[2-({6-[(dibenzo[b,d]furan-2-yloxy)methyl]-5-fluoropyridin-3-yl}oxy)ethyl](methyl)amino}acetonitrile]
mortality at 20 mg/m2 [2]: 80 to 100% | pest or weed control at 500 g/ha (Phaedon cochleariae): 100% | pest or weed control at 0.02 mg (Boophilus microplus; [6]): 100% | efficacy (kill in %) (Lucilia cuprina): 100% | efficacy (kill in %) (Ctenocephalides felis [5]): 100% | pest or weed control at 500 g/ha (Spodoptera frugiperda): 100%

CON(C)CCOc1cnc(COc2ccc3oc4ccccc4c3c2)c(C)c1 [Example 30, 2-({6-[(dibenzo[b,d]furan-2-yloxy)methyl]-5-methylpyridin-3-yl}oxy)-N-methoxy-N-methylethanamine]
mortality at 20 mg/m2 [1]: 80 to 100% | mortality at 20 mg/m2 [2]: 80 to 100% | efficacy (Tetranychus urticae): 100% | pest or weed control at 500 g/ha (Phaedon cochleariae): 83% | pest or weed control at 0.02 mg (Boophilus microplus; [6]): 100% | mortality at 20 mg/m2 [4]: 80 to 100%

CON(C)CCOc1cnc(COc2ccc(Cl)c(-c3ccccc3)c2)c(F)c1 [Example 63]
efficacy (Tetranychus urticae): 100% | efficacy (fleas dead or moribund) (Ctenocephalides felis [3]): 100% | efficacy (ticks dead or moribund) (Rhipicephalus sanguineus): 100% | efficacy (Phaedon cochleariae; application rate 100 g/ha, after 7 days): 100% | efficacy (laying of fertile eggs) (Boophilus microplus; [8]): 100% | efficacy (kill in %) (Lucilia cuprina): 100% | efficacy (kill in %) (Ctenocephalides felis [5]): 95% | efficacy (Spodoptera frugiperda; [7]): 100%

CON(C)CCOc1cnc(COc2ccc(F)c(-c3ccccc3)c2)c(F)c1 [Example 71, 2-[(5-fluoro-6-{[(6-fluorobiphenyl-3-yl)oxy]methyl}pyridin-3-yl)oxy]-N-methoxy-N-methylethanamine]
mortality at 20 mg/m2 [1, 9]: 80 to 100% | mortality at 20 mg/m2 [2, 9]: 80 to 100% | efficacy (fleas dead or moribund) (Ctenocephalides felis [3]): 100% | efficacy (ticks dead or moribund) (Rhipicephalus sanguineus): 100% | pest or weed control at 500 g/ha (Phaedon cochleariae; [7]): 83% | pest or weed control at 0.02 mg (Boophilus microplus; application rate 20 μg/animal, after 7 days, read-out: efficacy (laying of fertile eggs)): 100% | mortality at 20 mg/m2 [4, 9]: 80 to 100% | efficacy (kill in %) (Lucilia cuprina): 100% | pest or weed control at 500 g/ha (Spodoptera frugiperda; [7]): 100%

COc1cc(OCCN(C)OC)cnc1COc1ccc2oc3ccccc3c2c1 [Example 90, 2-({6-[(dibenzo[b,d]furan-2-yloxy)methyl]-5-methoxypyridin-3-yl}oxy)-N-methoxy-N-methylethanamine]
mortality at 100 mg/m2 [1]: 80 to 100% | mortality at 100 mg/m2 [2]: 80 to 100% | pest or weed control at 0.02 mg (Boophilus microplus; [6]): 100% | mortality at 20 mg/m2 [4]: 80 to 100% | mortality at 100 mg/m2 [4]: 80 to 100% | efficacy (kill in %) (Lucilia cuprina): 80% | pest or weed control at 500 g/ha (Spodoptera frugiperda): 83%

CCOc1nc(COc2cccc3c(Cl)c(Cl)ccc23)ccc1OCCN(C)OC [Example 97, 2-[(6-{[(5,6-dichloro-1-naphthyl)oxy]methyl}-2-ethoxypyridin-3-yl)oxy]-N-methoxy-N-methylethanamine]
mortality at 20 mg/m2 [4, 9]: 80 to 100%
